The results in this text go back to patent publication US4371532A, “Malonamidooxadethiacephem compounds” (Shionogi & Co., Ltd., priority 1980, dated 1983).

One test has as its system P. aeruginosa CN-5. Briefly: Protection of mice from infection caused by Pseudomonas aeruginosa CN-5. The format is in vivo. The settings on record: CN5, ip, inoculation = 7 × 10^3, two subc. inj. (mg/kg each) 1 and 5 hrs after intraperitoneal inoculation. The method, then:
Five representative compounds in the preceding examples are assayed for protection of mice from infection caused by Pseudomonas aeruginosa to give the effects as in the following table. | two subc. inj. (given mg/kg each) 1 and 5 | hrs after intraperitoneal inoculation | *inoculation = 7 × 10^3 -

In a further test the test system is P. aeruginosa PS-24. Briefly: Protection of mice from infection caused by Pseudomonas aeruginosa PS-24. In kind it is in vivo. The settings on record: PS24, ip, inoculation = 1 × 10^4, two subc. inj. (mg/kg each) 1 and 5 hrs after intraperitoneal inoculation. Here is the method:
Five representative compounds in the preceding examples are assayed for protection of mice from infection caused by Pseudomonas aeruginosa to give the effects as in the following table. | two subc. inj. (given mg/kg each) 1 and 5 | hrs after intraperitoneal inoculation | **inoculation = 1 × 10^4

The subject of a further test is Escherichia coli EC-14. The experiment in a line: Minimal inhibitory concentration in vitro by serial dilution method on Mueller Hinton agar. In kind it is cell-based. The settings on record: disodium salts (10), E. coli EC-14, Mueller Hinton agar.

As a reminder, the ED50 is the dose that gives a 50% effect, or the effect in half of the subjects. Higher therefore signals weaker potency. Take `CCC(C(=O)O)C(=O)NC1(OC)C(=O)N2C(C(=O)O)=C(CSc3nncs3)COC21` (centres unmarked) [compound 4]: the figures for the ED50 with P. aeruginosa CN-5 and with P. aeruginosa PS-24 were 32.5 mg/kg and 15.5 mg/kg, respectively. In general, MIC refers to the least concentration at which growth counts as inhibited. Consider `COC1(NC(=O)C(CC(C)C)C(=O)O)C(=O)N2C(C(=O)O)=C(CSc3nnnn3C)COC21` (centres unmarked) [Het=Tetr No. 6], for which, in the test on Escherichia coli EC-14 (EC14, Het=Tetr), the minimum inhibitory concentration (MIC) turned out to be 0.39 µg/mL.

Consider `COC1(NC(=O)CC(=O)O)C(=O)N2C(C(=O)O)=C(CSc3nnnn3C)COC21` (centres unmarked) [Het=Tetr No. 1], for which the MIC in the test on Escherichia coli EC-14 (EC14, Het=Tetr) came out at 1.56 µg/mL. For `COC1(NC(=O)C(C)C(=O)O)C(=O)N2C(C(=O)O)=C(CSc3nncs3)COC21` (centres unmarked) [compound 3], the ED50 in the test on P. aeruginosa CN-5 was 33.8 mg/kg; in the test on P. aeruginosa PS-24, 12.6 mg/kg. Consider `C=CCC(C(=O)O)C(=O)NC1(OC)C(=O)N2C(C(=O)O)=C(CSc3nncs3)COC21` (centres unmarked) [Het=Tdz No. 5], for which the minimum inhibitory concentration (MIC) with Escherichia coli EC-14 (EC14, Het=Tdz) stood at 0.39 µg/mL. Consider `C=CCC(C(=O)O)C(=O)NC1(OC)C(=O)N2C(C(=O)O)=C(CSc3nnnn3C)COC21` (centres unmarked) [Het=Tetr No. 8], for which, in the test with Escherichia coli EC-14 (EC14, Het=Tetr), the MIC worked out at 0.2 µg/mL. As to `CCC(C(=O)O)C(=O)NC1(OC)C(=O)N2C(C(=O)O)=C(CSc3nnnn3C)COC21` (centres unmarked) [compound 2], the values for the ED50 in the test with P. aeruginosa CN-5 and in the test with P. aeruginosa PS-24 were 22.2 mg/kg and 17.7 mg/kg, respectively. Turning to `COC1(NC(=O)C(C)C(=O)O)C(=O)N2C(C(=O)O)=C(CSc3nncs3)COC21` (centres unmarked) [Het=Tdz No. 1], the MIC in the test with Escherichia coli EC-14 (EC14, Het=Tdz) worked out at 0.39 µg/mL. Still for that read-out and setting: the figure for `CCCCC(C(=O)O)C(=O)NC1(OC)C(=O)N2C(C(=O)O)=C(CSc3nncs3)COC21` (centres unmarked) [Het=Tdz No. 4] is 0.39 µg/mL. Regarding `CCCC(C(=O)O)C(=O)NC1(OC)C(=O)N2C(C(=O)O)=C(CSc3nnnn3C)COC21` (centres unmarked) [Het=Tetr R=n-C3 H7], in the test on Escherichia coli EC-14 (EC14, Het=Tetr), the minimal inhibitory concentration (MIC) came out at 0.1 µg/mL. Take `CCC(C(=O)O)C(=O)NC1(OC)C(=O)N2C(C(=O)O)=C(CSc3nncs3)COC21` (centres unmarked) [Het=Tdz No. 2]: the minimum inhibitory concentration (MIC) in the test with Escherichia coli EC-14 (EC14, Het=Tdz) was 0.2 µg/mL. `COC1(NC(=O)C(C(=O)O)c2ccc(O)cc2)C(=O)N2C(C(=O)O)=C(CSc3nnnn3C)COC21` (centres unmarked) [Reference, reference compound]: the ED50 with P. aeruginosa CN-5 is 44.5 mg/kg; in the test on P. aeruginosa PS-24, 20.4 mg/kg. Turning to `CCC(C(=O)O)C(=O)NC1(OC)C(=O)N2C(C(=O)O)=C(CSc3nnnn3C)COC21` (centres unmarked) [Het=Tetr No. 3], the MIC in the test on Escherichia coli EC-14 (EC14, Het=Tetr) worked out at 0.1 µg/mL. The same measure, in the same setting: next, `COC1(NC(=O)C(C(=O)O)C(C)C)C(=O)N2C(C(=O)O)=C(CSc3nnnn3C)COC21` (centres unmarked) [Het=Tetr No. 5]: 0.39 µg/mL.

Turning to `CCCC(C(=O)O)C(=O)NC1(OC)C(=O)N2C(C(=O)O)=C(CSc3nncs3)COC21` (centres unmarked) [Het=Tdz No. 3], the minimum inhibitory concentration (MIC) with Escherichia coli EC-14 (EC14, Het=Tdz) was found to be 0.2 µg/mL.

As to `COC1(NC(=O)C(C)C(=O)O)C(=O)N2C(C(=O)O)=C(CSc3nnnn3C)COC21` (centres unmarked) [Het=Tetr No. 2], the MIC in the test on Escherichia coli EC-14 (EC14, Het=Tetr) was determined as 0.2 µg/mL.

On to `CCCCCCC(C(=O)O)C(=O)NC1(OC)C(=O)N2C(C(=O)O)=C(CSc3nnnn3C)COC21` (centres unmarked) [Het=Tetr No. 7], for which the minimal inhibitory concentration (MIC) in the test on Escherichia coli EC-14 (EC14, Het=Tetr) stood at 12.5 µg/mL.

Consider `COC1(NC(=O)C(C)C(=O)O)C(=O)N2C(C(=O)O)=C(CSc3nnnn3C)COC21` (centres unmarked) [compound 1], for which the 50% effective dose (ED50) in the test on P. aeruginosa CN-5 was determined as 22.3 mg/kg; with P. aeruginosa PS-24, 11.1 mg/kg.
